Source: publication PMC7946228, “Discovery of novel candidates for anti-liposarcoma therapies by medium-scale high-throughput drug screening” (PLoS ONE, 2021)

Columns and labels:
Type in all cases: cell-based, human
[1] = system: FU-DDLS-1 liposarcoma cell line; assay: CellTiter-Glo viability, GR50, 72h; conditions: Homo sapiens; FU-DDL S-1, 72h; read-out: Half maximum effective concentration corrected for cell growth (GR50)
Experimental: (§1) Cell viability was measured using the CellTiter-Glo Luminescent Cell Viability Assay (Promega, Wisconsin, United States). For each experiment the same cell numbers were seeded as for the proliferation experiments. Seven drug concentrations were used, starting from 100μM with 10-fold dilutions and also a vehicle control appropriate for each drug (DMSO or ethanol). After 72h of drug or vehicle control treatment levels of ATP were measured with CellTiter-Glo. The data from six to nine biological replicates, each with three technical replicates were collected. A nonlinear regression model with different four-parameter log-logistic function was used for modelling of the drug dose-response using ‘GRmetrics’ R package version 1.8.1 [26]. The calculated GR50 metric is equivalent to the IC50 metric but takes into account the growth rate of cells. Therefore, it estimates better the effect of the compound on cell viability and allows for comparison between different cell lines with different growth rates.

[2] = system: GOT3 liposarcoma cell line; assay: CellTiter-Glo viability, GR50, 72h; conditions: Homo sapiens; GOT3, 72h; read-out: Half maximum effective concentration corrected for cell growth (GR50)
Experimental: as §1

[3] = system: LPS141 liposarcoma cell line; assay: CellTiter-Glo viability, GR50, 72h; conditions: Homo sapiens, LPS141; LPS 141, 72h; read-out: Half maximum effective concentration corrected for cell growth (GR50)
Experimental: as §1

[4] = system: LPS510 liposarcoma cell line; assay: CellTiter-Glo viability, GR50, 72h; conditions: Homo sapiens; LPS 510, 72h; read-out: Half maximum effective concentration corrected for cell growth (GR50)
Experimental: as §1

[5] = system: LPS853 liposarcoma cell line; assay: CellTiter-Glo viability, GR50, 72h; conditions: Homo sapiens; LPS 853, 72h; read-out: Half maximum effective concentration corrected for cell growth (GR50)
Experimental: as §1

[6] = system: LS2 liposarcoma cell line; assay: CellTiter-Glo viability, GR50, 72h; conditions: Homo sapiens; LS2, 72h; read-out: Half maximum effective concentration corrected for cell growth (GR50)
Experimental: as §1

[7] = system: LiSa-2 liposarcoma cell line; assay: CellTiter-Glo viability, GR50, 72h; conditions: Homo sapiens; LiSa-2, 72h; read-out: Half maximum effective concentration corrected for cell growth (GR50)
Experimental: as §1

[8] = system: NRH-LS1 liposarcoma cell line; assay: CellTiter-Glo viability, GR50, 72h; conditions: Homo sapiens; NRH-LS1, 72h; read-out: Half maximum effective concentration corrected for cell growth (GR50)
Experimental: as §1

[9] = system: SA-4 liposarcoma cell line; assay: CellTiter-Glo viability, GR50, 72h; conditions: Homo sapiens; SA-4, 72h; read-out: Half maximum effective concentration corrected for cell growth (GR50)
Experimental: as §1

[10] = system: SW872 liposarcoma cell line; assay: CellTiter-Glo viability, GR50, 72h; conditions: Homo sapiens, SW872; SW 872, 72h; read-out: Half maximum effective concentration corrected for cell growth (GR50)
Experimental: as §1

[11] = system: T1000 liposarcoma cell line; assay: CellTiter-Glo viability, GR50, 72h; conditions: Homo sapiens; T1000, 72h; read-out: Half maximum effective concentration corrected for cell growth (GR50)
Experimental: as §1

[12] = system: T449 liposarcoma cell line; assay: CellTiter-Glo viability, GR50, 72h; conditions: Homo sapiens; T449, 72h; read-out: Half maximum effective concentration corrected for cell growth (GR50)
Experimental: as §1

[13] = system: T778 liposarcoma cell line; assay: CellTiter-Glo viability, GR50, 72h; conditions: Homo sapiens; T778, 72h; read-out: Half maximum effective concentration corrected for cell growth (GR50)
Experimental: as §1

liposarcoma cell lines [14] = assay: Cell cycle analysis of non-apoptotic cells (propidium iodide); conditions: growth arresting concentration, non-apoptotic fraction
Experimental: Cells were treated with drugs at the concentrations corresponding to previously established growth arresting concentrations and collected between 17 and 72h. Time of collection was individual for every drug/cell line combination; cells were collected after the beginning of complete growth inhibition (based on the growth curves data) but only when first signs of morphological change or cell death were visible (estimated microscopically approximately every 2h). After methanol fixation, cells were barcoded with different combinations of Pacific Blue/Pacific Orange dyes (Thermo Fisher Scientific) for different drug treatments. After mixing, cells were incubated in the TUNEL reaction mix for 1h at 37°C, according to the manufacturer’s instructions (Roche, Germany), stained with Streptavidin-Cy5 conjugated Ab and digested with RNAse. Cells were counter-stained with propidium iodide and analyzed using LSR II Flow Cytometer (BD Biosciences, NJ, USA. The data were processed with FlowJo Version 7.6.5 (Tree Star, Ashland, USA). The gating strategy is presented in Fig 3A. Cy-5 positive cells (as compared to control sample) were calculated as apoptotic. Cell cycles of non-apoptotic cells were analyzed using the built in FlowJo Cell Cycle Analysis module. Three independent biological replicates were done for each cell line/drug combination with exception of FU-DDLS-1 and T1000 –for which we only had two replicates available.

liposarcoma cell lines [15] = assay: Drug withdrawal, reversibility of growth arrest; conditions: for reversibility of growth inhibition after drug removal: 120h treatment at growth arresting concentration, then 72h without drug, except T778 with MLN9708
Experimental: The cellular proliferation rate was measured using the IncuCyte ZOOM live-cell imaging system (Essen Bioscience, Birmingham, UK) with the corresponding software application (version 2013BRev1). First the growth rate for each cell line was established to estimate the seeding numbers of cells corresponding to 15–30% of confluence at the start of the experiment and maximum 70% after 72h. The drug treatment was initiated approximately 18h after seeding. The proliferation rate was measured as cell confluence over time through the acquisition of photographs under phase contrast every third hour for the entire duration of the drug treatment. During the drug treatment, media were not changed, and cells were not split. The growth reducing drug concentration was defined as lowest drug concentration leading to significant decrease of cellular growth between 40 and 72h after start of treatment. To determine that concentration, plots were generated using IncuCyte software and differences in growth between 40 and 72h were calculated using least-square means with the ‘emmeans’ R package version 1.4.3 [25]. Growth arresting concentrations were defined as minimal drug concentration under which cell confluence between 96 and 120h increases by less than 3%. Though growth arrest occurred much earlier, these time points ensured that the growth arrest is a stable phenomenon. These growth arresting concentrations were used for drug withdrawal, apoptosis and cell cycle experiments. All the data were verified with the plots. The presented values correspond to median values from two (T449, all compounds) to five (all cell lines, triptolide) biological replicates.
An important prerequisite for clinical implementation of these compounds as treatment for liposarcoma is irreversibility of the induced growth inhibition. We thus assessed if the drugs were only transiently cytostatic, which is especially important in case of the compounds that seem to work mainly via cell cycle arrest (APO866, GSK2126458). Cells were treated with the compounds at growth arresting concentrations for 120h after which the compounds were removed and cell numbers were monitored for another 72h. […] To irreversibly arrest cell proliferation GSK2126458 had to be used at 10x higher concentrations (100x for GOT3) (S5 Fig). Those concentrations are above physiological ranges (see Table 2), and these effects should be accounted for assessing use of GSK2126458 in clinic.

| Compound | IC50 [1] [µM] | IC50 [2] [µM] | IC50 [3] [µM] | IC50 [4] [µM] | IC50 [5] [µM] | IC50 [6] [µM] | IC50 [7] [µM] | IC50 [8] [µM] | IC50 [9] [µM] | IC50 [10] [µM] | IC50 [11] [µM] | IC50 [12] [µM] | IC50 [13] [µM] | cell cycle phase in which cells are blocked (liposarcoma cell lines [14]) | reversibility of growth inhibition after drug removal (liposarcoma cell lines [15]) | concentration needed for irreversible growth arrest relative to growth arresting concentration (liposarcoma cell lines [15]; cell lines that resumed growth, 100x for GOT3 with GSK2126458) [x higher] |
| --- | --- | --- | --- | --- | --- | --- | --- | --- | --- | --- | --- | --- | --- | --- | --- | --- |
| O=C(/C=C/c1cccnc1)NCCCCC1CCN(C(=O)c2ccccc2)CC1 [APO866] | 0.001 | 0.005 | 0.006 | 0.003 | 0.001 | 0.008 | 0.008 | 0.001 | 0.01 | 0.004 | 0.006 | 0.001 | 0.003 | less specific arrest | irreversibly inhibited growth of all tested cell lines |  |
| CC(C)[C@]12O[C@H]1[C@@H]1O[C@]13[C@]1(O[C@H]1C[C@H]1C4=C(CC[C@@]13C)C(=O)OC4)[C@@H]2O [Triptolide] | 0.008 | 0.007 | 0.012 | 0.005 | 0.005 | 0.006 | 0.009 | 0.007 | 0.013 | 0.002 | 0.008 | 0.008 | 0.008 | S phase | irreversibly inhibited growth of all tested cell lines |  |
| COCCn1c2c([n+](Cc3cnccn3)c1C)C(=O)c1ccccc1C2=O [YM155] | 0.049 | 0.187 | 0.011 | 0.093 | 0.004 | 0.358 | 0.234 | 0.069 | 0.03 | 0.002 | 0.017 | 0.712 | 0.096 | less specific arrest | Some cell lines such as LPS141, T778 and SA-4 resumed growth | 10 |
| Cn1cc(CNCC2CCN(c3ncc(C(=O)NO)cn3)CC2)c2ccccc21 [JNJ-26481585] | 0.012 | 0.022 | 0.102 | 0.033 | 0.018 | 0.094 | 0.021 | 0.103 | 0.044 | 0.07 | 0.01 | 0.025 | 0.025 | G1 and G2 phases | irreversibly inhibited growth of all tested cell lines |  |
